Data from publication PMC6701825, “Antiproliferative and Antimigratory Effects of a Novel YAP–TEAD Interaction Inhibitor Identified Using in Silico Molecular Docking” (Journal of Medicinal Chemistry, 2019).

Tests used:
TEAD1 = target: T1, TEAD1 (Homo sapiens, UniProt P28347); test: GAL4-TEAD1 fusion / 5xGAL4-secNLUC reporter in HeLa cells; type: cell-based; conditions: 100 μM, 6 h
T1 construct: #18881 (FLAG-YAP); host or cells: HeLa
Source text: TEAD proteins (TEAD1–4) display a high degree of sequence conservation in residues that create the hydrophobic pocket that is essential for YAP binding.[51] YAP proteins also display a high degree of conservation in residues that interact with this pocket.[51] We therefore tested whether CPD3.1 was able to inhibit YAP-induced activity of TEAD1, TEAD2, TEAD3, and TEAD4. To quantify the effect of CPD3.1 on the activity of each individual TEAD paralog, while excluding interference from endogenously expressed TEAD1–4 proteins, we expressed each TEAD paralog (TEAD1–4) fused to the yeast GAL4 DNA-binding domain. Cells were transfected with the GAL4–TEAD expression vector together with a secreted nanoluciferase reporter gene vector under control of a promoter containing five GAL4 DNA-binding elements. This system allows us to study the effect of CPD3.1 on the activity of each individual TEAD protein in isolation, without interference from endogenously expressed transcription factors. In addition, the cells were co-transfected with a YAP expression vector to activate the GAL4–TEAD fusion-dependent transcription (see Supplement Figure 9). Basal activities of TEAD1, TEAD2, TEAD3, and TEAD4 were inhibited by CPD3.1 (Figure 7A–D). […]
Figure 7 Compound 3.1 inhibits TEAD1, TEAD2, TEAD3, and TEAD4 activities. […] Secreted nano-luciferase activity was quantified in the conditioned media. […]

[1] = target: T2, recombinant TEAD1 (residues 194-411) (Homo sapiens, UniProt P28347); test: Saturation transfer difference (STD) NMR binding to TEAD1; conditions: 2 mM CPD3.1, approximately 20 μM TEAD1
T2 construct: TEAD1 protein (residues 194–411) was prepared by solution cleavage of the GST tag; GST (N, cleaved yes); made in house; host or cells: SoluBL21 Escherichia coli
Description: Figure 6 Saturation transfer difference (STD) NMR analysis of compound 3.1 binding to TEAD1. Saturation-Transfer Difference (STD) NMR spectra showing the binding of CPD3.1 to recombinant TEAD1. (A) reference 1H NMR spectra of a mixture of CPD3.1 and TEAD1. (B) and (C) show the STD spectra of CPD3.1 in the absence and presence of TEAD1. The asterisk indicates buffer components or impurities in the sample. The three spectra were recorded in PBS made up in 40% H2O/60% D2O acquired at 700 MHz. The concentration of CPD3.1 was 2 mM, whereas the final concentration of TEAD1 was approximately 20 μM.
Binding of compounds to human TEAD was performed using STD NMR analysis. Briefly, TEAD1 protein (residues 194–411) was prepared by solution cleavage of the GST tag from recombinant GST–TEAD1 (194–411). GST–TEAD1 protein was eluted from glutathione beads by 40 mM reduced glutathione. GST tag was removed by incubation with PreScission protease (Sigma-Aldrich) at 4 °C for 18 h. Glutathione was removed by dialysis against 1000 volumes of 1× PBS at 4 °C for 4 h. Free GST protein was removed by incubation with glutathione resin. All NMR spectroscopy experiments were performed on a Bruker Avance III HD 700 MHz spectrometer equipped with a 1.7 mm inverse triple-resonance microcryocoil probe. NMR samples were prepared in 40 μL with PBS pH 7.4 in 60% D2O (uncorrected for D2O). […]

T1 sequence (P28347 whole entry, the tested form may be a part): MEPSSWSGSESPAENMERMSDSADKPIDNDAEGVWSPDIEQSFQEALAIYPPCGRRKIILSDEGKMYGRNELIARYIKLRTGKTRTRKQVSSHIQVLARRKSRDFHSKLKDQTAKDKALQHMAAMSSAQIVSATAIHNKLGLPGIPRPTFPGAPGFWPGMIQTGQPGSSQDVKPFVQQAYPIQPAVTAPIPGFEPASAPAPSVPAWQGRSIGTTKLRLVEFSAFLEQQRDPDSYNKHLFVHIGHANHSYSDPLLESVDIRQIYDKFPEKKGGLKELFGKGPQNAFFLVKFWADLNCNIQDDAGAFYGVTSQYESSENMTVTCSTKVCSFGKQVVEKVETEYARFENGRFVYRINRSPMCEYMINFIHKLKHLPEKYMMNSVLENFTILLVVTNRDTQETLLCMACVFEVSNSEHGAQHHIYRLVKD
T2 sequence (P28347 209-426): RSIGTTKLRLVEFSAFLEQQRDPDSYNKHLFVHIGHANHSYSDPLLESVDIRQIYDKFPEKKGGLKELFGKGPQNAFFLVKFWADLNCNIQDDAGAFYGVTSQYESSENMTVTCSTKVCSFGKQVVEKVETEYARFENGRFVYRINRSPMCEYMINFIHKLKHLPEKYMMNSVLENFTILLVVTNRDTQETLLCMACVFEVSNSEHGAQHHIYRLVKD

Cc1ccc2c(c1)c1c3n2CCNC3CCC1 (stereo not drawn) [CPD3.1]
basal activity of GAL4-TEAD1 (TEAD1): inhibited
YAP-stimulated activity of GAL4-TEAD1 (TEAD1; YAP overexpression): significantly inhibited
binding to purified recombinant TEAD protein (STD NMR) [1]: confirmed
